Results as given in patent publication US20240124487A1, “BRANCHED MACROCYCLIC 4-(PYRAZOL-5-YL)-INDOLE DERIVATIVES AS INHIBITORS OF MCL-1” (JANSSEN PHARMACEUTICA NV, priority 2020, published 2024).

What was measured:
[1] = target: Myeloid Cell Leukemia 1 (Mcl-1) (Homo sapiens (Human), UniProt Q07820); experiment: Terbium labeled Mcl-1 HTRF binding assay (displacement of Cy5-labeled BIM BH3 peptide); conditions: 25 pM Tb-Mcl-1, 8 nM Cy5 Bim peptide, Ki=IC50/(1+[L]/Kd), [L]=8 nM, Kd=10 nM, read-out: TB-MCL1 Ki
Chain of Myeloid Cell Leukemia 1 (Mcl-1) (Q07820 whole entry): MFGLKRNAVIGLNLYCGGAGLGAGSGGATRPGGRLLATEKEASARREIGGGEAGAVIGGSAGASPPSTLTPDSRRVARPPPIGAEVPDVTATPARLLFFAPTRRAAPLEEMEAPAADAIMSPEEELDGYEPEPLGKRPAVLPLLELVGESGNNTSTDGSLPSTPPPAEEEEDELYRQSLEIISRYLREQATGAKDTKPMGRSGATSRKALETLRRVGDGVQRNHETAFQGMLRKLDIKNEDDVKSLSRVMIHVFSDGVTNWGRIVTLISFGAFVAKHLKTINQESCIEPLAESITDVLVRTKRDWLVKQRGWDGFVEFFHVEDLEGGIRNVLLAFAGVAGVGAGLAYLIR
Description: Terbium labeled Myeloid Cell Leukemia 1 (Mcl-1) homogeneous time-resolved fluorescence (HTRF) binding assay utilizing the BIM BH3 peptide (H2N-(C/Cy5Mal) WIAQELRRIGDEFN-OH) as the binding partner for Mcl-1.
This assay evaluated inhibition of the BH3 domain: Mcl-1 interaction by measuring the displacement of Cy5-labeled BIM BH3 peptide (H2N—(C/Cy5Mal) WIAQELRRIGDEFN-OH) in the HTRF assay format.
The following assay and stock buffers were prepared for use in the assay: (a) Stock buffer: 10 mM Tris-HCl, pH=7.5+150 mM NaCl, filtered, sterilized, and stored at 4° C.; and (b) 1× assay buffer, where the following ingredients were added fresh to stock buffer: 2 mM dithiothreitol (DTT), 0.0025% Tween-20, 0.1 mg/mL bovine serum albumin (BSA). The 1×Tb-Mcl-1+Cy5 Bim peptide solution was prepared by diluting the protein stock solution using the 1× assay buffer (b) to 25 pM Tb-Mcl-1 and 8 nM Cy5 Bim peptide.
Using the Acoustic ECHO, 100 nL of 100× test compound(s) were dispensed into individual wells of a white 384-well Perkin Elmer Proxiplate, for a final compound concentration of 1× and final DMSO concentration of 1%. Inhibitor control and neutral control (NC, 100 nL of 100% DMSO) were stamped into columns 23 and 24 of assay plate, respectively. Into each well of the plate was then dispensed 10 μL of the 1×Tb-Mcl-1+Cy5 Bim peptide solution. The plate was centrifuged with a cover plate at 1000 rpm for 1 minute, then incubated for 60 minutes at room temperature with plates covered. The TR-FRET signal was read on an BMG PHERAStar FSX MicroPlate Reader at room temperature using the HTRF optic module (HTRF: excitation: 337 nm, light source: laser, emission A: 665 nm, emission B: 620 nm, integration start: 60 μs, integration time: 400 pts).
The BMG PHERAStar FSX MicroPlate Reader was used to measure fluorescence intensity at two emission wavelengths—665 nm and 620 nm—and report relative fluorescence units (RFU) for both emissions, as well as a ratio of the emissions (665 nm/620 nm)*10,000. The RFU values were normalized to percent inhibition as follows:
% inhibition=(((NC−IC)−(compound−IC))/(NC−IC))*100
where IC (inhibitor control, low signal)=mean signal of 1×Tb-MC1-1+Cy5 Bim peptide+inhibitor control or 100% inhibition of Mcl-1; NC (neutral control, high signal)=mean signal 1×Tb-MC1-1+Cy5 Bim peptide with DMSO only or 0% inhibition
An 11-point dose response curve was generated to determine IC50 values (using GenData) based on the following equation:
Y=Bottom+(Top−Bottom)/(1+10^((log IC50−X)*HillSlope))
where Y=% inhibition in the presence of X inhibitor concentration; Top=100% inhibition derived from the IC (mean signal of Mcl-1+inhibitor control); Bottom=0% inhibition derived from the NC (mean signal of Mcl-1+DMSO); Hillslope=Hill coefficient; and IC50=concentration of compound with 50% inhibition in relation to top/neutral control (NC).
In this assay [L]=8 nM and Kd=10 nM
Representative compounds of the present invention were tested according to the procedure as described above, with results as listed in the Table below (n.d. means not determined).

[2] = tested on: MOLP-8 human multiple myeloma cell line; experiment: MOLP8 Caspase-Glo 3/7 apoptosis induction assay; type: cell-based; conditions: MOLP-8 cells, 2 hours incubation at 37° C., averaged values over all runs on all batches
Text: MCL-1 is a regulator of apoptosis and is highly over-expressed in tumor cells that escape cell death. The assay evaluates the cellular potency of small-molecule compounds targeting regulators of the apoptosis pathway, primarily MCL-1, Bfl-1, Bcl-2, and other proteins of the Bcl-2 family. Protein-protein inhibitors disrupting the interaction of anti-apoptotic regulators with BH3-domain proteins initiate apoptosis.
The Caspase-Glo® 3/7 Assay is a luminescent assay that measures caspase-3 and -7 activities in purified enzyme preparations or cultures of adherent or suspension cells. The assay provides a proluminescent caspase-3/7 substrate, which contains the tetrapeptide sequence DEVD. This substrate is cleaved to release aminoluciferin, a substrate of luciferase used in the production of light. Addition of the single Caspase-Glo® 3/7 Reagent in an “add-mix-measure” format results in cell lysis, followed by caspase cleavage of the substrate and generation of a “glow-type” luminescent signal.
This assay uses the MOLP-8 human multiple myeloma cell line, which is sensitive to MCL-1 inhibition.
Materials: • Perkin Elmer Envision • Multidrop 384 and small volume dispensing cassettes • Centrifuge • Countess automated cell counter • Countess counting chamber slides • Assay plate: ProxiPlate-384 Plus, White 384-shallow well Microplate • Sealing tape: Topseal A plus • T175 culture flask
Cell cultures were maintained between 0.2 and 2.0×10^6 cells/mL. The cells were harvested by collection in 50 mL conical tubes. The cells were then pelleted at 500 g for 5 mins before removing supernatant and resuspension in fresh pre-warmed culture medium. The cells were counted and diluted as needed.
The assay reagent was prepared by transferring the buffer solution to the substrate vial and mixing. The solution may be stored for up to 1 week at 4° C. with negligible loss of signal.
Compounds were delivered in assay-ready plates (Proxiplate) and stored at −20° C.
Assays always include 1 reference compound plate containing reference compounds. The plates were spotted with 40 nL of compounds (0.5% DMSO final in cells; serial dilution; 30 μM highest conc. 1/3 dilution, 10 doses, duplicates). The compounds were used at room temperature and 4 μL of pre-warmed media was added to all wells except column 2 and 23. The negative control was prepared by adding 1% DMSO in media. The positive control was prepared by adding the appropriate positive control compound in final concentration of 60 μM in media. The plate was prepared by adding 4 μL negative control to column 23, 4 μL positive control to column 2 and 4 μL cell suspension to all wells in the plate. The plate with cells was then incubated at 37° C. for 2 hours. The assay signal reagent is the Caspase-Glo solution described above, and 8 μL was added to all wells. The plates were then sealed and measured after 30 minutes.
The activity of a test compound was calculated as percent change in apoptosis induction as follows: • LC=median of the Low Control values • =Central Reference in Screener • =DMSO • =0% • HC=Median of the High Control values • =Scale Reference in Screener • =30 μM of positive control • =100% apoptosis induction
% Effect (AC50)=100−((sample−LC)/(HC−LC))*100
% Control=(sample/HC)*100
% Control min=((sample−LC)/(HC−LC))*100

Row | Structure (SMILES) | Ki [1] | AC50 [2] | AC50 ([2]; Homo sapiens, MOLP-8, 2 h)
1 | COc1ccc(COC2CCc3cc(n(C)n3)CCc3cc(c4ccc(F)cc4c3)OCCCn3c(C(=O)O)c(C)c4c(c(Cl)ccc43)-c3c2nn(C)c3C)cc1 (single isomer, unassigned) [Compound 22] | 0.357 nM | 1000 nM | 
2 | COc1ccc(COC2CCc3cc(n(C)n3)CCc3cc(c4ccc(F)cc4c3)OCCCn3c(C(=O)O)c(C)c4c(c(Cl)ccc43)-c3c2nn(C)c3C)cc1 (single isomer, unassigned) [Compound 23] | 0.073 nM | 169 nM | 
3 | COCCCC1OCc2cc(n(C)n2)CCc2cc(c3ccc(F)cc3c2)OCCCn2c(C(=O)O)c(C)c3c(c(Cl)ccc32)-c2c1nn(C)c2C (single isomer, unassigned) [Compound 24] | 8.42 nM | > 25 nM | 
4 | Cc1c(C(=O)O)n2c3ccc(Cl)c(c13)-c1c(nn(C)c1C)C(CCO)OCc1cc(n(C)n1)CCc1cc(c3ccc(F)cc3c1)OCCC2 (stereo not shown) [Compound 6] | 0.009 nM |  | 52.7 nM
5 | COCCOCCn1nc(C)c2c1C(C)OCc1cc(n(C)n1)CCc1cc(c3ccc(F)cc3c1)OCCCn1c(C(=O)O)c(C)c3c-2c(Cl)ccc31 (stereo not shown) [Compound 21] | 0.057 nM | 318 nM | 
6 | CNCCC1OCc2cc(n(C)n2)CCc2cc(c3ccc(F)cc3c2)OCCCn2c(C(=O)O)c(C)c3c(c(Cl)ccc32)-c2c1nn(C)c2C (stereo not shown) [Compound 26] | 3.61 nM |  | > 30 nM
7 | Cc1nn2c3c1-c1c(Cl)ccc4c1c(C)c(C(=O)O)n4CCCOc1cc(cc4cc(F)ccc14)CCc1cc(nn1C)CCC3OCC2 (stereo not shown) [Compound 29] | 0.302 nM | 146 nM | 
8 | COCCn1nc2cc1CCc1cc(c3ccc(F)cc3c1)OCCCn1c(C(=O)O)c(C)c3c(c(Cl)ccc31)-c1c(C)nn3c1C(CC2)OCC3 (stereo not shown) [Compound 34] | 0.408 nM | 889 nM | 
